Converted amounts (≈) assume the structure as drawn. *1 amine or outer side, *2 acyl side, *3 side chain or, on linkers, in order; H or OH if unused. Where a SMILES comes first, the peptide text is derived from it. Side-chain parts run from the residue outwards. [ ]: non-standard residue; d: D form. The star is where a group is joined. γGlu = O=C(O)[C@H](CCC(=O)[*:2])N[*:1]; Stearoyl = CCCCCCCCCCCCCCCCCC(=O)*; Palmitoyl = CCCCCCCCCCCCCCCC(=O)*; Aib = CC(C)(N)C(=O)O; GABA = NCCCC(=O)O Some results are limits rather than exact numbers.

The subject of data set [1] is female leptin-receptor deficient diabetic db/db mice. Description: Blood glucose and HbA1c in leptin-receptor deficient diabetic db/db mice (method 3). It is filed as in vivo. As to conditions: single 100 μg/kg s.c., fed db/db mice. The source says: Female BKS.Cg-m+/+Leprdb/J (db/db) and BKS.Cg-m+/+Leprdb/+(lean control) mice were obtained from Charles River Laboratories, Germany, at an age of 9-10 weeks. The animals were housed in groups in a specific pathogen-free barrier facility on a 12-h light/dark cycle with free access to water and rodent-standard chow. After 1 week of acclimatization, blood samples were drawn from the tail without anaesthesia and blood glucose (method: d-glucose hexokinase, hemolysate, AU640 Beckman Coulter) and HbA1c level (method: hemolysate, Cobas6000 c501, Roche Diagnostics, Germany) were determined. […] The volume of administration was 5 mL/kg. The animals had access to water and chow during the experiment, food consumption was determined at all time points of blood sampling. […] Blood sampling was performed by tail incision without anaesthesia. […] At the end of the study, blood samples (tail, no anaesthesia) were analyzed for glucose and HbA1c. […] Statistical analyses were performed with Everstat 6.0 by repeated measures two-way ANOVA and Dunnett's post-hoc analyses. Differences versus vehicle-treated db/db control mice were considered statistically significant at the p<0.05 level. […] At predefined time points, more blood samples were taken to measure blood glucose and generate the blood glucose profile over 24 h. […] Blood glucose and HbA1c were determined before start of treatment and at the end of the study after 4 weeks of treatment. […] Before treatment started, no significant differences in blood glucose levels could be detected between db/db groups, only the lean control animals had significant lower glucose levels. During the 4 weeks of treatment, glucose levels increased in the vehicle-treated db/db control group, indicating a worsening of the diabetic situation.

Data set [2] relates to female NMRI-mice. Description: Gastric emptying and intestinal passage in mice. It counts as in vivo. As to conditions: 10 μg/kg s.c., versus vehicle control. The protocol: Female NMRI-mice of a body weight between 20 and 30 g were used. Mice were adapted to housing conditions for at least one week. Mice were overnight fasted, while water remained available all the time. On the study day, mice were weighed, single-caged and allowed access to 500 mg of feed for 30 min, while water was removed. At the end of the […], remaining feed was removed and weighed. Then, the test compound/reference compound or its vehicle in the control group was administered subcutaneously. 60 min later, to allow the compound to reach relevant plasma exposure, a coloured, non-caloric bolus was instilled via gavage into the stomach. After another 30 min, the animals were sacrificed and the stomach and the small intestine prepared. The filled stomach was weighed, emptied, carefully cleaned and dried and reweighed. The stomach content, calculated as weight of filled subtracted by the weight of emptied stomach, indicated the degree of gastric emptying. The small intestine was straightened without force and measured in length. Then the distance from the gastric beginning of the gut to the tip of the farthest traveled intestinal content bolus was measured. The intestinal passage was given as ratio in percent of the latter distance and the total length of the small intestine. […] Statistical analyses were performed with Everstat 6.0 by 1-way-ANOVA, followed by Dunnett's as post-hoc test. Dunnett's Test was applied to compare versus vehicle control. Differences were considered statistically significant at the p<0.05 level.

Data set [3] has as its system female NMRI-mice. Description: Automated assessment of 22-hours feed intake in mice. It counts as in vivo. As to conditions: 0.1 mg/kg s.c. The procedure:
Female NMRI-mice of a body weight between 20 and 30 g were used. Mice were adapted to housing conditions for at least one week and for at least one day single-caged in the assessment equipment, when basal data were recorded simultaneously. On the study day, test product was administered subcutaneously close to the lights-off phase (12 h lights off) and assessment of feed consumption was directly started afterwards. Assessment included continued monitoring over 22 hours, while data are processed as mean over every 30 min. Repetition of this procedure over several days was possible. Restriction of assessment to 22 hours was for practical reasons to allow for reweighing of animals, refilling of feed and water and drug administration between procedures. Results could be assessed as cumulated data over 22 hours or differentiated to 30 min intervals. […] Statistical analyses were performed with Everstat 6.0 by two-way ANOVA on repeated measures and Dunnett's post-hoc analyses. Differences were considered statistically significant at the p<0.05 level. […] Lights-off phase (dark phase) started 4 hours later. […].

Data set [4] can be described thus: Chemical stability in solution, 7 days at 25° C. (% remaining peptide). As to conditions: % remaining peptide after 7 days at 25° C.
Description: After that time course, the sample was centrifuged for 20 min at 4000 rpm and the supernatant was analysed with HPLC-UV. For determination of the amount of the remaining peptide, the peak areas of the target compound at t0 and t7 were compared, resulting in “% remaining peptide”, following the equation % remaining peptide=[(peak area peptide t7)×100]/peak area peptide t0.
The chemical stability is expressed as “% remaining peptide”.
The nature of data set [5]: Solubility testing in buffer (HPLC-UV).
A short description of data set [6]: Pharmacokinetic testing in mice, s.c. As to conditions: mouse, sc, 1 mg/kg.
Description: Mice were dosed 1 mg/kg subcutaneously (s.c.). The mice were sacrified and blood samples were collected after 0.25, 0.5, 1, 2, 4, 8, 16 and 24 hours post application. Plasma samples were analyzed after protein precipitation via liquid chromatography mass spectrometry (LC/MS). PK parameters and half-life were calculated using WinonLin Version 5.2.1 (non-compartment model).
The next data set concerns the target T1, human GIP receptor (Homo sapiens, UniProt P48546).
T1 construct: expressed in transfected cells
T1 sequence (P48546 22-466): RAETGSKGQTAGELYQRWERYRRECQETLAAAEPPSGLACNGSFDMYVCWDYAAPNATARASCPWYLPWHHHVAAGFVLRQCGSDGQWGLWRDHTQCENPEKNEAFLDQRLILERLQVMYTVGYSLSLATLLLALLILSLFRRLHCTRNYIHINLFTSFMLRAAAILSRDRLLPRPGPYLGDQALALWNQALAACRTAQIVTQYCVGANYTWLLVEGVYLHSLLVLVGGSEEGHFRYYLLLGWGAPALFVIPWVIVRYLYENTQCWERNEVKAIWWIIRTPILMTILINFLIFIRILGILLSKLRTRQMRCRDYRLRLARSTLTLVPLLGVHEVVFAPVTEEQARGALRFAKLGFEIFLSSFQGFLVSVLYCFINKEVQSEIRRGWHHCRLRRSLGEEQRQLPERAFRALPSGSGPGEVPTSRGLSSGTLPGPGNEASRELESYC
Nature of the data set: cAMP response (HTRF) of HEK-293 cells stably expressing human GIP receptor. It counts as cell-based. As to conditions: Table 7; cAMP formation; read-out: EC50 hGIP R. The procedure:
cAMP content of cells was determined using a kit from Cisbio Corp. (cat. no. 62AM4PEC) based on HTRF (Homogenous Time Resolved Fluorescence). For preparation, cells were split into T175 culture flasks and grown overnight to near confluency in medium (DMEM/10% FBS). Medium was then removed and cells washed with PBS lacking calcium and magnesium, followed by proteinase treatment with accutase (Sigma-Aldrich cat. no. A6964). Detached cells were washed and resuspended in assay buffer (1×HBSS; 20 mM HEPES, 0.1% BSA, 2 mM IBMX) and cellular density determined. They were then diluted to 400000 cells/ml and 25 μl-aliquots dispensed into the wells of 96-well plates. For measurement, 25 μl of test compound in assay buffer was added to the wells, followed by incubation for 30 minutes at room temperature.
On the technique in general: In TR-FRET formats the signal depends on donor and acceptor labels being close together.

Another data set concerns the target T2, human GLP-1 receptor (Homo sapiens, UniProt P43220).
T2 construct: expressed in transfected cells
Nature of the data set: cAMP response (HTRF) of HEK-293 cells stably expressing human GLP-1 receptor. It counts as cell-based. As to conditions: Table 7; cAMP formation; read-out: EC50 hGLP-1 R. In a few lines: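 Cells grown overnight in DMEM/10% FBS, detached with accutase, resuspended in HBSS with 20 mM HEPES, 0.1% BSA and 2 mM IBMX at 400000 cells/ml. Test compound added and incubated 30 minutes at room temperature; cellular cAMP then measured by HTRF.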

T2 sequence (P43220 24-463): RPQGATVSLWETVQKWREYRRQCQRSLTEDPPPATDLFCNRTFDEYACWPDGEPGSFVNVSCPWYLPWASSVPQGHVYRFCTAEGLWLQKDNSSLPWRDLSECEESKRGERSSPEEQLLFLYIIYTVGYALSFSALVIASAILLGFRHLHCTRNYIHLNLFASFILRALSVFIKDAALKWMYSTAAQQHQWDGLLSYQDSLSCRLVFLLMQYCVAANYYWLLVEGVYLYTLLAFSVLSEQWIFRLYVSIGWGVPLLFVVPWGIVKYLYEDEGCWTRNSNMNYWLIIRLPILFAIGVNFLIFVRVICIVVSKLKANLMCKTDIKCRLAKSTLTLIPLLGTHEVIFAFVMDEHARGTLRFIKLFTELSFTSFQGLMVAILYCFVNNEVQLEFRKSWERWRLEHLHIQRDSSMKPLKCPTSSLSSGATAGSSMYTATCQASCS

Broadly, the solubility is the dissolved amount per volume that the medium holds. As usually defined, the Cmax is the highest concentration seen after dosing. The term half-life denotes the time in which the quantity being followed falls by half. Read a low half-life as fast loss. For `CCCCCCCCCCCCCCCC(=O)N[C@@H](CCC(=O)NCCCC[C@H](NC(=O)[C@H](CCC(N)=O)NC(=O)[C@@H](NC(=O)[C@H](CO)NC(=O)[C@H](CC(C)C)NC(=O)[C@H](CC(=O)O)NC(=O)[C@H](CO)NC(=O)[C@@H](NC(=O)[C@H](Cc1ccccc1)NC(=O)[C@@H](NC(=O)CNC(=O)[C@H](CCC(N)=O)NC(=O)C(C)(C)NC(=O)[C@@H](N)Cc1ccc(O)cc1)[C@@H](C)O)[C@@H](C)O)[C@@H](C)CC)C(=O)N[C@@H](CC(=O)O)C(=O)N[C@@H](CO)C(=O)N[C@@H](CCCNC(=N)N)C(=O)N[C@@H](C)C(=O)N[C@@H](C)C(=O)N[C@@H](CCC(N)=O)C(=O)N[C@@H](CC(=O)O)C(=O)N[C@@H](Cc1ccccc1)C(=O)N[C@H](C(=O)N[C@@H](CCC(=O)O)C(=O)N[C@@H](Cc1c[nH]c2ccccc12)C(=O)N[C@@H](CC(C)C)C(=O)N[C@@H](CCCCN)C(=O)N[C@@H](CC(N)=O)C(=O)NCC(=O)NCC(=O)N1CCC[C@H]1C(=O)N[C@@H](CO)C(=O)N[C@@H](CO)C(=O)NCC(=O)N[C@@H](C)C(=O)N1CCC[C@H]1C(=O)N1CCC[C@H]1C(=O)N1CCC[C@H]1C(=O)N[C@@H](CO)C(N)=O)[C@@H](C)CC)C(=O)O` [SEQ ID NO: 13, Y-Aib-Q-G-T-F-T-S-D-L-S-I-Q-K(γE-x53)-DSRAAQDFIEWLKNGGPSSGAPPPS-NH2] (H-Y[Aib]QGTFTSDLSIQK([γGlu-Palmitoyl])DSRAAQDFIEWLKNGGPSSGAPPPS-NH2), the “blood glucose compared to db/db control mice, 24 h profile” value in data set [1] was “significant decrease in blood glucose”. Besides, in the data set with female NMRI-mice [2], the “increase of remaining gastric contents” value worked out at 40% and the “reduction of intestinal passage” value was determined as 60%. Also, the “reduction of feed intake after 22 hours” value with female NMRI-mice [3] was 93%. In data set [4], the “Stability (pH 4.5)” value was 86.8% and the “Stability (pH 7.4)” value is 95.9%. Moreover, the concentration in solution in data set [5] (pH 4.5) (solubility at 2 h) was 268 µg/mL (≈ 59.4 µM). Moreover, in data set [5] (pH 7.4), the solubility at 2 h is above 1000 µg/mL. In data set [6] (in vivo), this compound gave a maximum concentration (Cmax) of 3790 ng/mL and a half-life of 3.1 h.

The term EC50 denotes the concentration needed to bring the measured effect to its halfway point. Consider `CCCCCCCCCCCCCCCCCC(=O)NCCCC(=O)NCCCC[C@H](NC(=O)[C@H](CCC(N)=O)NC(=O)[C@@H](NC(=O)[C@H](CO)NC(=O)[C@H](CC(C)C)NC(=O)[C@H](CC(=O)O)NC(=O)[C@H](CO)NC(=O)[C@@H](NC(=O)[C@H](Cc1ccccc1)NC(=O)[C@@H](NC(=O)CNC(=O)[C@H](CCC(=O)O)NC(=O)C(C)(C)NC(=O)[C@@H](N)Cc1ccc(O)cc1)[C@@H](C)O)[C@@H](C)O)[C@@H](C)CC)C(=O)N[C@@H](CCC(=O)O)C(=O)N[C@@H](CCCCN)C(=O)N[C@@H](CCCNC(=N)N)C(=O)N[C@@H](C)C(=O)N[C@@H](C)C(=O)NC(C)(C)C(=O)N[C@@H](CCC(=O)O)C(=O)N[C@@H](Cc1ccccc1)C(=O)N[C@H](C(=O)N[C@@H](CCC(=O)O)C(=O)N[C@@H](Cc1c[nH]c2ccccc12)C(=O)N[C@@H](CC(C)C)C(=O)N[C@@H](CCCCN)C(=O)N[C@@H](CC(N)=O)C(=O)N[C@H](C(=O)NCC(=O)N1CCC[C@H]1C(=O)N[C@@H](CO)C(=O)N[C@@H](CO)C(=O)NCC(=O)N[C@@H](C)C(=O)N1CCC[C@H]1C(=O)N1CCC[C@H]1C(=O)N1CCC[C@H]1C(=O)N[C@@H](CO)C(N)=O)[C@@H](C)O)[C@@H](C)CC` [SEQ ID NO: 17, Y-Aib-E-G-T-F-T-S-D-L-S-I-Q-K(GABA-x70)-E-K-R-A-A-Aib-E-F-I-E-W-L-K-N-T-G-P-S-S-G-A-P-P-P-S-NH2] (H-Y[Aib]EGTFTSDLSIQK([GABA-Stearoyl])EKRAA[Aib]EFIEWLKNTGPSSGAPPPS-NH2), for which the concentration for a half-maximal effect (EC50) on human GIP receptor stood at 9.6 pM; at human GLP-1 receptor, 8.7 pM. Moreover, the “Stability (pH 4.5)” value in data set [4] was determined as 100.0%. For the same compound, in data set [4], the “Stability (pH 7.4)” value is listed as 100.0%. Besides, the solubility at 2 h in data set [5] (buffer, pH 4.5) is 970 µg/mL (≈ 213 µM); in data set [5] (buffer, pH 7.4) it was above 1000 µg/mL.

On to `CCCCCCCCCCCCCCCC(=O)N[C@@H](CCC(=O)NCCCC[C@H](NC(=O)[C@H](CCC(N)=O)NC(=O)[C@@H](NC(=O)[C@H](CO)NC(=O)[C@H](CC(C)C)NC(=O)[C@H](CC(=O)O)NC(=O)[C@H](CO)NC(=O)[C@@H](NC(=O)[C@H](Cc1ccccc1)NC(=O)[C@@H](NC(=O)CNC(=O)[C@H](CCC(N)=O)NC(=O)C(C)(C)NC(=O)[C@@H](N)Cc1ccc(O)cc1)[C@@H](C)O)[C@@H](C)O)[C@@H](C)CC)C(=O)N[C@@H](CCC(=O)O)C(=O)N[C@@H](CO)C(=O)N[C@@H](CCCNC(=N)N)C(=O)N[C@@H](C)C(=O)N[C@@H](C)C(=O)N[C@@H](CCC(N)=O)C(=O)N[C@@H](CC(=O)O)C(=O)N[C@@H](Cc1ccccc1)C(=O)N[C@H](C(=O)N[C@@H](CCC(=O)O)C(=O)N[C@@H](Cc1c[nH]c2ccccc12)C(=O)N[C@@H](CC(C)C)C(=O)N[C@@H](CCCCN)C(=O)N[C@@H](C)C(=O)NCC(=O)NCC(=O)N1CCC[C@H]1C(=O)N[C@@H](CO)C(=O)N[C@@H](CO)C(=O)NCC(=O)N[C@@H](C)C(=O)N1CCC[C@H]1C(=O)N1CCC[C@H]1C(=O)N1CCC[C@H]1C(=O)N[C@@H](CO)C(N)=O)[C@@H](C)CC)C(=O)O` [SEQ ID NO: 32, Y-Aib-Q-G-T-F-T-S-D-L-S-I-Q-K(γE-x53)-ESRAAQDFIEWLKAGGPSSGAPPPS-NH2] (H-Y[Aib]QGTFTSDLSIQK([γGlu-Palmitoyl])ESRAAQDFIEWLKAGGPSSGAPPPS-NH2), for which the concentration giving a half-maximal response (EC50) on human GIP receptor stood at 7.1 pM. In addition, on human GLP-1 receptor, the EC50 worked out at 8.4 pM. In data set [6] (plasma), the Cmax came to 5520 ng/mL and the half-life was 2.7 h.

Values taken from patent US9670261B2 (Sanofi, priority 2012, dated 2017).
